Patent US7517517B2 (Janssen Pharmaceutica N.V., priority 2002, dated 2009)
Like-named read-outs stand apart in the source and are kept apart here. Blank lines part the entries; values can stand above or below the compound they belong to.

What was measured:
[1] = target: T1, rat mGlu1a receptor (Rattus norvegicus, UniProt P23385); test: Intracellular Ca2+ response in rat mGlu1a receptor expressing CHO-dhfr− cells (FLIPR); format: cell-based; conditions: for IC50: read-out: IC50, inhibition of the glutamate-induced increase in [Ca2+]i
T1 construct: host or cells: CHO-dhfr- cells

[2] = target: T2, mGlu1 receptor (Rattus norvegicus, UniProt P23385); test: [3H]Compound A binding to rat brain membranes (cortex, hippocampus, striatum, cerebellum); conditions: 10 μM; 2.5 nM [3H]Compound A (FIG. 9)
Procedure: Tissue preparation. Male Wistar rats (˜200 g) were sacrificed by decapitation. The brains were rapidly removed and cortex, hippocampus, striatum and cerebellum were immediately dissected. The fresh tissue was homogenized with an Ultra Turrax in 20 volumes of 50 mM Tris-HCl, pH 7.4 and tissue was centrifuged at 23,500 g for 10 min. After homogenisation using a DUAL homogeniser, membranes were washed twice by centrifugation at 23,500 g for 10 min. The final pellet was suspended in 10 volumes of 50 mM Tris-HCl, pH 7.4 and frozen at −80° C.
In vitro binding assay. After thawing, membranes from rat cortex, cerebellum, striatum and hippocampus were rehomogenized using a DUAL and suspended in ice-cold binding buffer containing 50 mM Tris-HCl, 1.2 mM MgCl2, 2 mM CaCl2, pH 7.4. The binding assay was carried out in a total volume of 0.5 ml containing 2.5 nM [^3H]Compound A and a membrane aliquot corresponding to 40 μg for cerebellar membranes, 60 μg for hippocampal membranes, 80 μg for striatal membranes or 150 μg for cortical membranes. […] After incubation for 30 min at 4° C., the labelled membranes were washed and harvested by rapid vacuum filtration over Whatman GF/C glass-fibre filters using a 40-well filtration manifold and radioactivity collected on the filters was counted as above.
Data analysis was performed using the GraphPad Prism program (GraphPad Prism Software, Inc., San Diego, Calif.). Saturation binding experiments were analysed using a non-linear regression analysis. Inhibition curves were fitted using non-linear regression analysis fitting the one-site competition equation: Y=Bottom+((Top−Bottom)/1+10^X-LogIC50). Ki values were calculated using the Cheng-Prusoff equation: Ki=IC50/[1+([C]/KD)] where C is the concentration of radioligand and KD is the dissociation constant of the radioligand (Cheng and Prusoff, Biochem. Pharmacol. 22, 3099-3108, 1973). The observed on (kob) and off (koff) rate were calculated from association-dissociation curves using the one-phase-exponential association and decay equations in the Prism program, respectively. kon was calculated by subtracting koff from kob and dividing by the radioligand concentration. The two-tailed Student's t-test was used for statistical evaluation of the binding data: * p<0.05, ** p<0.01 and *** p<0.001. The Dunnett's t-test following a 2-way analysis of variance (with as factors compound concentration and experiment) were used to analyse the data from the IP experiments.

[3] = target: T1, rat mGlu1a receptor; test: [3H]Compound A binding to rat mGlu1a receptor CHO-dhfr− membranes (saturation, kinetics, inhibition); conditions: for Ki: 2.5 nM [3H]Compound A, 30 min at 4° C.; for Ki / Hill coefficient: mean ± SD of 3–4 experiments; for Hill coefficient: inhibition of [3H]Compound A-binding
[4] = target: T1, rat mGlu1a receptor; test: [3H]quisqualate binding to rat mGlu1a receptor CHO-dhfr− membranes (saturation, inhibition)
[5] = target: T2, mGlu1 receptor; test: [3H]Compound A binding and autoradiography on rat brain sections; conditions: 10 μM (FIG. 10, panel C)
Procedure: Tissue preparation. Male Wistar rats (200 g) were sacrificed by decapitation. Brains were immediately removed from the skull and were rapidly frozen in dry-ice-cooled 2-methylbutane (−40° C.). Brains were then stored at −70° C. until sectioning. Twenty-micrometer-thick sagittal sections were cut using a Leica C3050 cryostat microtome (Leica Microsystems, Wetzlar, Germany) and thaw-mounted on SuperFrost Plus microscope slides (Menzle-glaser, Germany). The sections were then kept at −70° C. until use.
Receptor autoradiography. Sections were thawed and dried under a stream of cold air, preincubated (3×5 min) in 50 mM Tris-HCl, 1.2 mM MgCl2, 2 mM CaCl2, 0.1% BSA pH 7.4 at room temperature. […] After the incubation, the excess of radioligand was washed off (3×5 min) in ice-cold buffer containing 50 mM Tris-HCl, 1.2 mM MgCl2 and 2 mM CaCl2, followed by a rapid dip in cold distilled water. The sections were dried under a stream of cold air and then exposed to [^3H]Hyperfilm (Amersham, UK) for 6 weeks at room temperature. The films were developed manually in Kodak D19 and fixed with Kodak Readymatic. Some sections were exposed to a Fuji Imaging Plate for 2 days at room temperature and scanned using a Fujix Bass 2000 phosphoimager.

[6] = system: mGlu1 receptor; conditions: literature; cited from earlier work
[7] = target: T3, human mGlu1a receptor (Homo sapiens, UniProt Q13255); test: Intracellular Ca2+ response in human mGlu1a receptor expressing L929sA cells (FLIPR); format: cell-based
T3 construct: expressed in transfected cells; host or cells: L929sA cells

[8] = target: T4, rat mGlu6 receptor (Rattus norvegicus, UniProt P35349); test: [35S]GTPγS binding to membranes from CHO-dhfr− cells expressing the rat mGlu6 receptor; format: biochemical
T4 construct: host or cells: CHO-dhfr- cells
Procedure: (§1) Confluent cells were washed in ice-cold phosphate-buffered saline and stored at −20° C. until membrane preparation. After thawing, cells were suspended in 50 mM Tris-HCl, pH 7.4 and collected through centrifugation for 10 min at 23,500 g at 4° C. The cells were lysed in 10 mM hypotonic Tris-HCl, pH 7.4. After recentrifugation for 20 min at 30,000 g at 4° C., the pellet was homogenized with an Ultra Turrax homogenizer in 50 mM Tris-HCl, pH 7.4. Protein concentrations were measured by the Bio-Rad protein assay using bovine serum albumin as standard.
(§2) Membranes were thawed on ice and diluted in 10 mM HEPES acid, 10 mM HEPES salt, pH 7.4, containing 100 mM NaCl, 3 mM MgCl2, 3 μM GDP and 10 μg/ml saponine. Assay mixtures contained 10 μg of membrane protein and were pre-incubated with compounds or buffer for 5 min at 37° C. […] [^35S]GTPγS was added to a final concentration of 0.1 nM for another 30 min at 37° C. Reactions were terminated by rapid filtration through Unifilter-96 GF/B filter plates (Packard, Meriden, Conn.) using a 96-well Packard filtermate harvester. Filters were washed 2 times with ice-cold 10 mM NaH2PO4/10 mM Na2HPO4 buffer, pH 7.4. Filter-bound radioactivity was counted in a Microplate Scintillation and Luminesence Counter from Packard.

[9] = target: T5, rat mGlu4 receptor (Rattus norvegicus, UniProt P31423); test: [35S]GTPγS binding to membranes from CHO-dhfr− cells expressing the rat mGlu4 receptor; format: biochemical
T5 construct: host or cells: CHO-dhfr- cells
Procedure: as §1, §2

[10] = target: T6, rat mGlu5 receptor (Rattus norvegicus, UniProt P31424); test: Intracellular Ca2+ response in rat mGlu5 receptor expressing CHO-dhfr− cells (FLIPR); format: cell-based; conditions: tested up to a concentration of 10 μM
T6 construct: host or cells: CHO-dhfr- cells
Procedure: L929sA cells stably expressing the human mGlu1a receptor were obtained as described in Lavreysen et al., Mol. Pharmacol. 61:1244-1254, 2002 and were cultured in Glutamax-I medium supplemented with 10% heat inactivated dialysed foetal calf serum, 0.1 mg/ml streptomycin sulphate and 100 units/ml penicillin. CHO-dhfr^− cells stably expressing the rat mGlu1a, -2, -3, -4, -5 and -6 receptor were a kind gift from S. Nakanishi (Tokyo University, Japan) and were grown in DMEM with Glutamax-I with 10% heat inactivated dialysed foetal calf serum, 0.4 mM L-prolin, 0.2 mg/ml streptomycin sulphate and 200 units/ml penicillin. Cells were kept in an atmosphere of 37° C. and 5% CO2.
Intracellular calcium ion levels ([Ca^2+]i) in human mGlu1a receptor expressing L929sA cells were measured using the Fluorometric Imaging Plate Reader (FLIPR, Molecular Devices, CA, USA), as described in Lavreysen et al., Mol. Pharmacol. 61:1244-1254, 2002. The same procedure was followed for CHO-dhfr^− cells expressing the rat mGlu1a receptor. For the rat mGlu5 receptor, cells were seeded at 30.000 cells/well 2 days before the experiment.

[11] = system: AMPA receptor; test: [3H]Ro 48-8587 binding to rat forebrain membranes; conditions: [3H]Ro 48-8587, rat forebrain; tested up to 10 μM
Procedure: (§3) Tissue preparation. Male Wistar rats (˜200 g) were sacrificed by decapitation. The brains were rapidly removed and forebrain was dissected. The tissue was homogenized with an Ultra Turrax in 20 volumes of ice-cold H2O and was centrifuged at 48,000 g for 20 min. After homogenisation using a DUAL homogeniser, membranes were washed by centrifugation at 48,000 g for 10 min. The pellet was then suspended in 20 volumes of 50 mM Tris-HCl, pH 7.4 containing 0.04% Triton X-100 and again centrifuged at 48,000 g for 20 min. The final pellet was frozen at −80° C.
(§4) In vitro binding assay. At the day of the experiment, the pellet was thawed, washed and rehomogenised using a DUAL in ice-cold 50 mM Tris-acetate, pH 7.4. Assay conditions for the different radioligands were as follows. The final concentration of membrane in the assay was 20 mg/ml (wet weight) for [^3H]Ro 48-8587 and [^3H]L689560 and was 10 mg/ml (wet weight) for [^3H]CGP39653 and [^3H]MK-801. Radioligand concentrations of 2 nM [^3H]Ro 48-8587, 2 nM [^3H]L689560, 2 nM [^3H]CGP39653 and 3 nM [^3H]MK-801 were used. […] For [^3H]L689560 and [^3H]MK-801 binding, 100 μM D-serine or 10 μM phencyclidine were used to define non-specific binding, respectively. […] Radioactivity collected on the filters was counted as above.

[12] = target: T7, rat mGlu3 receptor (Rattus norvegicus, UniProt P31422); test: [35S]GTPγS binding to membranes from CHO-dhfr− cells expressing the rat mGlu3 receptor; format: biochemical
T7 construct: host or cells: CHO-dhfr- cells
Procedure: as §1, §2

[13] = target: T8, glycine site of the NMDA receptor (Rattus norvegicus, UniProt P35439); test: [3H]L689560 binding to rat forebrain membranes; conditions: [3H]L689560, rat forebrain; tested up to 10 μM
T8 construct: from tissue; host or cells: rat forebrain membranes
Procedure: as §3, §4

[14] = target: T1, rat mGlu1a receptor; test: IP response (basal IP accumulation) in rat mGlu1a receptor expressing CHO-dhfr− cells; format: cell-based
[15] = system: glutamate site of the NMDA receptor; test: [3H]CGP39653 binding to rat forebrain membranes; conditions: [3H]CGP39653, rat forebrain; tested up to 10 μM
Procedure: as §3, §4

[16] = target: T9, rat mGlu2 receptor (Rattus norvegicus, UniProt P31421); test: [35S]GTPγS binding to membranes from CHO-dhfr− cells expressing the rat mGlu2 receptor; format: biochemical
T9 construct: host or cells: CHO-dhfr- cells
Procedure: as §1, §2

[17] = target: T6, rat mGlu5 receptor; test: [3H]MPEP binding to rat mGlu5 receptor CHO-dhfr− membranes; conditions: rat mGlu5 receptor containing membranes; positive control
[18] = rat mGlu1a receptor CHO-dhfr− membranes
[19] = ratio of IC50 values, rat mGlu1a Ca2+ assay
[20] = read-out: IC50 for inhibition of glutamate-induced [35S]GTPγS activation

T9 sequence (P31421 19-872): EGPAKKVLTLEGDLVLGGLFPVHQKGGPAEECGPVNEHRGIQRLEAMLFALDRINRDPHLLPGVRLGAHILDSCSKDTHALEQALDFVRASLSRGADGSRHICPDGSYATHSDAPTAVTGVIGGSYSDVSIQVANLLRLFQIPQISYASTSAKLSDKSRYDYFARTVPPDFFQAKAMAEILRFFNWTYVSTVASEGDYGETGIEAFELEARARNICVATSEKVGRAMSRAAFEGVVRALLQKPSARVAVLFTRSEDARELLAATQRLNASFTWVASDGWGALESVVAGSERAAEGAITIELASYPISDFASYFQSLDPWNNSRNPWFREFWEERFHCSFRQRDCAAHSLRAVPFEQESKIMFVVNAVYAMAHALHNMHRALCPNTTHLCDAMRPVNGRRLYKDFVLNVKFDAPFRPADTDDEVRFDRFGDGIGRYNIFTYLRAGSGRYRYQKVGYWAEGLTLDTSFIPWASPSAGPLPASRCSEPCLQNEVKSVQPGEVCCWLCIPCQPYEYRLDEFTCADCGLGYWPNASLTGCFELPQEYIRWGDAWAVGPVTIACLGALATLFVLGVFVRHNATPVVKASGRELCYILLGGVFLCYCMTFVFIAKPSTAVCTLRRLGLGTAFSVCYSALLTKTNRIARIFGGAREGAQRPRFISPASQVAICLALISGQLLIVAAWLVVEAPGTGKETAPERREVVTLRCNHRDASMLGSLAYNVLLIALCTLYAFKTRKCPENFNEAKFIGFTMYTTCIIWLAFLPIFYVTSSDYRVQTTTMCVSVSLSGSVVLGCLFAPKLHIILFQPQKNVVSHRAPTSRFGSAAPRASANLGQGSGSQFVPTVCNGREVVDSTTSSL
T4 sequence (P35349 24-871): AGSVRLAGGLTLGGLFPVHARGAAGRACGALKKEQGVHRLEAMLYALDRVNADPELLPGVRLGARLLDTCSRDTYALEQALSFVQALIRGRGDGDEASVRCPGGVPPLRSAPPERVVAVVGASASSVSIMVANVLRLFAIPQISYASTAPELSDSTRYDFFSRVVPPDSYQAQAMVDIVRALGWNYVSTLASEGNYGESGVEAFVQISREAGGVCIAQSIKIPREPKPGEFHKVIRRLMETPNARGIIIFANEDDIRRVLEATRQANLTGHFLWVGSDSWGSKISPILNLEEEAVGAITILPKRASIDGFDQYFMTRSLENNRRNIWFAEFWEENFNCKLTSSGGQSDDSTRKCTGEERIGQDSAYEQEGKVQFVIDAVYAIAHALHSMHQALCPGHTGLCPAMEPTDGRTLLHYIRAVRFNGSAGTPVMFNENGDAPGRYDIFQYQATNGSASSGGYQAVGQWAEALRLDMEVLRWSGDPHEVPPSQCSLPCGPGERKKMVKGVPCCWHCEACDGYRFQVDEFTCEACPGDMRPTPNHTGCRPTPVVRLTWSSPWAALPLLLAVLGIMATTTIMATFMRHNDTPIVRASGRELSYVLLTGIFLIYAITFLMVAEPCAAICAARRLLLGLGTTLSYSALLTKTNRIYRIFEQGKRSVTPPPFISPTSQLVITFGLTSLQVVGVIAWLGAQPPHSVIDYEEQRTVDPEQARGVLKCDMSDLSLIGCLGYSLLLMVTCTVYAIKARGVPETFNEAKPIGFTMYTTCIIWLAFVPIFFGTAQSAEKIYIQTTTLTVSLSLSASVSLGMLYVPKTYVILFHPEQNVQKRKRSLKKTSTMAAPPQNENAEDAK
T5 sequence (P31423 33-912): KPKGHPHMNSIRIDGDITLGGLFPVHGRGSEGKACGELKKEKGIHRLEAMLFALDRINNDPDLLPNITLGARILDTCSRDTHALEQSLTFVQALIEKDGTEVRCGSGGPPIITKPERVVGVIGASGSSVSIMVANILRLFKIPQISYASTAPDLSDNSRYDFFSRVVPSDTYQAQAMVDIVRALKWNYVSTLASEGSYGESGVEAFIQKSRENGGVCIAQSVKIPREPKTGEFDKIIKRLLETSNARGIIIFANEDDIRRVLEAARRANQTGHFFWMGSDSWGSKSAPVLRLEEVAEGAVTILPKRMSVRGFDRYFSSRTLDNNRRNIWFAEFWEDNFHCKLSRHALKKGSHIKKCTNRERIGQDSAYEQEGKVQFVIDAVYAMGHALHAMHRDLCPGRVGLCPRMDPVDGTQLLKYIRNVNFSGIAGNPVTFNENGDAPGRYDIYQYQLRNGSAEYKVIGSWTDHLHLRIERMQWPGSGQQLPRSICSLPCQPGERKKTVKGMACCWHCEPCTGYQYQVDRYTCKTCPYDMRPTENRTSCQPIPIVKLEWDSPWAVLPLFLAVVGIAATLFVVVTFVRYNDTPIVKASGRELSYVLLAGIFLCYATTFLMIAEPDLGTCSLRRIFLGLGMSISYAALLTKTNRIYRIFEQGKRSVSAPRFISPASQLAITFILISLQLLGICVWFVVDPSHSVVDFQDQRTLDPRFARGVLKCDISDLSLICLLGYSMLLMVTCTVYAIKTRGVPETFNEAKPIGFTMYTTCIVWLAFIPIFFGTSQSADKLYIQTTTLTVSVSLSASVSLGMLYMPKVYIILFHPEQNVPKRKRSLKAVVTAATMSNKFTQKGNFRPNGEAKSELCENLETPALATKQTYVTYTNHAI
T7 sequence (P31422 23-879): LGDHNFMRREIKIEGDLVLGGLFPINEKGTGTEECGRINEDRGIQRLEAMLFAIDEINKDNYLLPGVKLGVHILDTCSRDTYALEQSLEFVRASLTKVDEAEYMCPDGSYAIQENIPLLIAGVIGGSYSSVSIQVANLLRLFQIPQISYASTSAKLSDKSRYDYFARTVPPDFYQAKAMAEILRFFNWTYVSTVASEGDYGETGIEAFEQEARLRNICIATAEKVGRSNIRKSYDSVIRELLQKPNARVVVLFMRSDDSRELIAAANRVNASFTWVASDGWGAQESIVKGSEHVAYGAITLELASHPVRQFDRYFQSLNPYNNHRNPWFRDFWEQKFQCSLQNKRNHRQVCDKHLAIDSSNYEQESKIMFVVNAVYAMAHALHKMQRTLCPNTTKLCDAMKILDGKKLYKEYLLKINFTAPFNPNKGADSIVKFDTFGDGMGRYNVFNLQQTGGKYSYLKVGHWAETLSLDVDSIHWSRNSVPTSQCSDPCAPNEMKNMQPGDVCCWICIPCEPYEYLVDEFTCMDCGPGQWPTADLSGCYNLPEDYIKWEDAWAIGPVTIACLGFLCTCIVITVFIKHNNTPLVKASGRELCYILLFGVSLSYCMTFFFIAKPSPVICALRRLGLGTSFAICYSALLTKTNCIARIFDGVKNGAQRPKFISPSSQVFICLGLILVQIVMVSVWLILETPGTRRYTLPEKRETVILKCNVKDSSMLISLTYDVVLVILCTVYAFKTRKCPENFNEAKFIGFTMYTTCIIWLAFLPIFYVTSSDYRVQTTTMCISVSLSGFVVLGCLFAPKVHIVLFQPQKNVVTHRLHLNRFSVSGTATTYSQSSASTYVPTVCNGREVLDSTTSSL
T1 sequence (P23385 19-1199): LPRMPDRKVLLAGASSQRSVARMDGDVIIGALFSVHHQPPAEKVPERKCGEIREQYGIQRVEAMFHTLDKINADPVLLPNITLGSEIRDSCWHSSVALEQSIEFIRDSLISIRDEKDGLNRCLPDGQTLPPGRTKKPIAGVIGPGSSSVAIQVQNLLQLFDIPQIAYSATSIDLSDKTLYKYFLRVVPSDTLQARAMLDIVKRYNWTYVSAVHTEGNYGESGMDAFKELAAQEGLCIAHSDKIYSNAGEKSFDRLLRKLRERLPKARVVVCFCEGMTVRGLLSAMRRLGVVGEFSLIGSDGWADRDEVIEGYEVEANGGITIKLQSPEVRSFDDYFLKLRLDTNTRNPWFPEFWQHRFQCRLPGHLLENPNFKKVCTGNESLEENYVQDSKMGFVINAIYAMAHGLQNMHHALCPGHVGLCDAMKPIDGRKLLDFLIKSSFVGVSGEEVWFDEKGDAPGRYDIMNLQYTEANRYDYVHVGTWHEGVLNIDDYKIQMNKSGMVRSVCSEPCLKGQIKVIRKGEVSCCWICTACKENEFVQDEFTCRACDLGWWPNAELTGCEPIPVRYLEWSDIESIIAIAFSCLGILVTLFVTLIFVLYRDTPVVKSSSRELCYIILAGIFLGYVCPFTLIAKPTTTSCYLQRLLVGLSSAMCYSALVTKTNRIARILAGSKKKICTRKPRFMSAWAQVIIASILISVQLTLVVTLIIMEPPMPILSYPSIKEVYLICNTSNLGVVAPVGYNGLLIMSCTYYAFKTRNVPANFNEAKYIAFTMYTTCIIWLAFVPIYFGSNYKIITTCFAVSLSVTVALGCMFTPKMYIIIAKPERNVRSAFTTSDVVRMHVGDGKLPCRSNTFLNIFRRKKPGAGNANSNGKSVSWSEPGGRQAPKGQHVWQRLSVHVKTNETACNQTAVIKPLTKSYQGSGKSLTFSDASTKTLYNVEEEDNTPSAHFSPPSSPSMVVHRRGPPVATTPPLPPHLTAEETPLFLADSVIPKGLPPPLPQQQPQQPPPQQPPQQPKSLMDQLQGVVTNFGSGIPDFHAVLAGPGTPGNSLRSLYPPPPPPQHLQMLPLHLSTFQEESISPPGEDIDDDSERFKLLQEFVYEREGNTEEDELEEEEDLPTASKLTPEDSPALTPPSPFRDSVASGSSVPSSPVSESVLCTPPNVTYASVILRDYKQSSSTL

IC50 ([1]; CHO-dhfr− cells expressing rat mGlu1a, glutamate 30 μM): 0.161 ± 0.038 µM
inhibition of [3H]Compound A binding to rat cerebellar membranes [2]: maximally inhibited
Ki [3]: 11.2 ± 0.93 nM
Hill coefficient [3]: 0.95 ± 0.02
inhibition of [3H]Compound A binding (in words) [3, 18]: nanomolar concentrations
Ki ([4]; inhibition of [3H]quisqualate binding, rat mGlu1a receptor CHO-dhfr− membranes, mean ± SD of 2 experiments): > 1000 µM
effect on [3H]quisqualate binding (in words) [4, 18]: did not affect
inhibition of [3H]Compound A binding to rat brain sections [5]: completely inhibited
Compound: C=C1C[C@@H]2COC(=O)[C@]2(Cc2ccc3ccccc3c2)C1 [BAY 36-7620, reference compound]
potency of mGlu1 receptor block [6]: 0.16 µM

Compound: O=C(Cc1ccccc1)c1ccc2nc3c(cc2c1)CCCO3 [Compound A]
mode of antagonism ([1]; glutamate concentration-response curve in absence and presence of compound (FIG. 1B)): non-competitive
inhibition of mGlu1a receptor-mediated signalling ([1]; in the presence of 100 nM-1 μM compound): Complete inhibition
times more potent than BAY 36-7620 [1, 19]: about 8 times
times more potent than CPCCOEt [1, 19]: ~500 times
IC50 [1]: 0.0216 ± 0.005 µM
IC50 [7]: 0.0104 ± 0.0047 µM
glutamate Emax upon addition of compound (positive allosteric modulation) ([8]; 10 μM compound together with glutamate, rat mGlu6): not increased
IC50 [8, 20]: > 30 µM
agonist activity in [35S]GTPγS assay ([8]; up to 30 μM, rat mGlu6): did not exhibit agonist activity
glutamate Emax upon addition of compound (positive allosteric modulation) ([9]; 10 μM compound together with glutamate, rat mGlu4): not increased
IC50 [9, 20]: > 30 µM
agonist activity in [35S]GTPγS assay ([9]; up to 30 μM, rat mGlu4): did not exhibit agonist activity
inhibition of glutamate-induced Ca2+ signaling [10]: did not inhibit
Ki [3]: 1.35 ± 0.99 nM
Hill coefficient [3]: 0.94 ± 0.04
binding to the AMPA receptor [11]: did not bind
glutamate Emax upon addition of compound (positive allosteric modulation) ([12]; 10 μM compound together with glutamate, rat mGlu3): not increased
IC50 [12, 20]: > 30 µM
agonist activity in [35S]GTPγS assay ([12]; up to 30 μM, rat mGlu3): did not exhibit agonist activity
binding to the glycine site of the NMDA receptor [13]: nor did it bind
Ki [4]: > 1000 µM
effect on [3H]quisqualate binding (in words) [4, 18]: did not displace
decrease of basal IP accumulation ([14]; 1 μM compound, p<0.05): 24±4%
maximal decrease of basal IP accumulation ([14]; 100 μM compound): 33±3%
binding to the glutamate site of the NMDA receptor [15]: nor did it bind
glutamate Emax upon addition of compound (positive allosteric modulation) ([16]; 10 μM compound together with glutamate, rat mGlu2): not increased
IC50 [16, 20]: > 30 µM
agonist activity in [35S]GTPγS assay ([16]; up to 30 μM, rat mGlu2): did not exhibit agonist activity

specific binding [17]: 95%
Compound: Cc1cccc(C#Cc2ccccc2)n1 [[^3H]MPEP]

IC50 ([1]; CHO-dhfr− cells expressing rat mGlu1a, same assay): 10.3 ± 0.8 µM
Ki [3]: 4900 nM
Ki [4]: > 1000 µM
Compound: CCOC(=O)[C@]12CC1/C(=N\O)c1ccccc1O2 (mixture of isomers) [CPCCOEt, reference compound]
